From ChEMBL document CHEMBL1201862, “PubChem BioAssay data set” (2004)
Active and inactive are the calls of the source.

What was measured:
[1] = biological target: T1, RNA-binding protein pos-1 (Caenorhabditis elegans, UniProt G5EF15); test: disruptors of C. elegans POS-1 RNA interaction – biochemical, fluorescence polarization, dose response (AID 1964);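 also: purified POS-1 fused to maltose binding protein made in E. coli; potency of compounds blocking POS-1 binding to fluorescent RNA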
T1 sequence (G5EF15 whole entry): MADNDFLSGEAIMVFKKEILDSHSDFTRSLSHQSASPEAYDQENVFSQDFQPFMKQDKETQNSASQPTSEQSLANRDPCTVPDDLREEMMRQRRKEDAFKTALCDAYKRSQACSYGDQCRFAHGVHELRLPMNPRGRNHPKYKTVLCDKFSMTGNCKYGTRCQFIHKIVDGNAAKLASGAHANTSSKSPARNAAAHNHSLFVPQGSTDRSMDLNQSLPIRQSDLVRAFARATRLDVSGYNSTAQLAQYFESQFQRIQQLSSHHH

[2] = biological target: T2, Zinc finger protein mex-5 (Caenorhabditis elegans, UniProt Q9XUB2); test: potency of MEX-5 RNA-binding blockers – biochemical, C. elegans, fluorescence polarization, dose response (AID 1960)
T2 sequence (Q9XUB2 whole entry): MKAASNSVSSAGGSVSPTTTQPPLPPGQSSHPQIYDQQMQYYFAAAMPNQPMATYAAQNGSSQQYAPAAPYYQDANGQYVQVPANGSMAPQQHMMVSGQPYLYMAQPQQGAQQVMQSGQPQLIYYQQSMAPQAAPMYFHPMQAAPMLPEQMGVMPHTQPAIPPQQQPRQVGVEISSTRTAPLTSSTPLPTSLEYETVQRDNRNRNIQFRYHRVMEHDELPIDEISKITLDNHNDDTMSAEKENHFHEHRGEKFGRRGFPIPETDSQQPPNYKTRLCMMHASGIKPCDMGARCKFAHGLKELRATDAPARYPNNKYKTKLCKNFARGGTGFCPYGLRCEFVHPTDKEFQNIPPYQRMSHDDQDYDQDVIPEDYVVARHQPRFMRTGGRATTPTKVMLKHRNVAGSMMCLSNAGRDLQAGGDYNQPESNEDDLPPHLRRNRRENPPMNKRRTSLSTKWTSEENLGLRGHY

[3] = NIH3T3 cell viability loss – ATP luminescence, mouse fibroblasts, counter-screen, dose response (AID 2010); type: functional, cell-based;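 also: cells exposed to compound for about 90 hours before reading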
[4] = Trypanosoma cruzi growth suppression in host cells – NIH3T3 host cells, beta-gal luminescence, confirmation (AID 2044); type: functional, cell-based;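 also: intracellular parasites grown in NIH/3T3 mouse fibroblasts as host cells; luminescent beta-galactosidase reporter signal from transgenic T. cruzi replicating inside host cells; inhibitors lower the luminescence signal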
[5] = biological target: T3, Protein RecA (Mycobacterium tuberculosis, UniProt P9WHJ3); test: Fluorescence Cell-Free Homogeneous Dose Retest to Identify Inhibitors of RecA-Intein Splicing Activity. [Related pubchem assays (depositor defined):AID2097, AID2223, AID489010, AID492950]; type: functional
T3 sequence (P9WHJ3 whole entry): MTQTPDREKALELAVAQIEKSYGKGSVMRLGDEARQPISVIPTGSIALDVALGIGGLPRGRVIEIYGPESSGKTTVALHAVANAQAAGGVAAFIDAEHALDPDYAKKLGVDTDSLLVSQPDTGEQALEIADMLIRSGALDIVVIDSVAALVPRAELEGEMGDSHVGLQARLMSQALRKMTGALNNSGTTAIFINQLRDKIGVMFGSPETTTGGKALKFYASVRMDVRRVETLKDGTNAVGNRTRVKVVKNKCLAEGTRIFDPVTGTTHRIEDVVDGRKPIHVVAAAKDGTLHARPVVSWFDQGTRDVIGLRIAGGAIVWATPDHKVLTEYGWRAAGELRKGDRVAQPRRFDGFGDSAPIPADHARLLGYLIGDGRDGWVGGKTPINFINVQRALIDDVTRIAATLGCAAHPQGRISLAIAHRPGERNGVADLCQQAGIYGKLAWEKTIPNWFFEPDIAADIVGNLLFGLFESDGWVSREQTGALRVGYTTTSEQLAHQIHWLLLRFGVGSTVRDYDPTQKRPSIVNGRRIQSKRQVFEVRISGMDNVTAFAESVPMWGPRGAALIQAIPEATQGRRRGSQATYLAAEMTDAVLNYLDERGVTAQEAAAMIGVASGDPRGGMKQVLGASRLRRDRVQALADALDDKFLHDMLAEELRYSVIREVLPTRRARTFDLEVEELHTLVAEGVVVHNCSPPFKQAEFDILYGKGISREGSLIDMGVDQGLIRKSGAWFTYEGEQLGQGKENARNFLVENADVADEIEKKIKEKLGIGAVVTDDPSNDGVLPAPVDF

[6] = biological target: T4, Replicative DNA helicase DnaB (Mycobacterium tuberculosis, UniProt P9WMR3); test: DnaB intein splicing inhibitors, dose response, biochemical, cell-free fluorescence (AID 449749); type: functional
T4 sequence (P9WMR3 whole entry): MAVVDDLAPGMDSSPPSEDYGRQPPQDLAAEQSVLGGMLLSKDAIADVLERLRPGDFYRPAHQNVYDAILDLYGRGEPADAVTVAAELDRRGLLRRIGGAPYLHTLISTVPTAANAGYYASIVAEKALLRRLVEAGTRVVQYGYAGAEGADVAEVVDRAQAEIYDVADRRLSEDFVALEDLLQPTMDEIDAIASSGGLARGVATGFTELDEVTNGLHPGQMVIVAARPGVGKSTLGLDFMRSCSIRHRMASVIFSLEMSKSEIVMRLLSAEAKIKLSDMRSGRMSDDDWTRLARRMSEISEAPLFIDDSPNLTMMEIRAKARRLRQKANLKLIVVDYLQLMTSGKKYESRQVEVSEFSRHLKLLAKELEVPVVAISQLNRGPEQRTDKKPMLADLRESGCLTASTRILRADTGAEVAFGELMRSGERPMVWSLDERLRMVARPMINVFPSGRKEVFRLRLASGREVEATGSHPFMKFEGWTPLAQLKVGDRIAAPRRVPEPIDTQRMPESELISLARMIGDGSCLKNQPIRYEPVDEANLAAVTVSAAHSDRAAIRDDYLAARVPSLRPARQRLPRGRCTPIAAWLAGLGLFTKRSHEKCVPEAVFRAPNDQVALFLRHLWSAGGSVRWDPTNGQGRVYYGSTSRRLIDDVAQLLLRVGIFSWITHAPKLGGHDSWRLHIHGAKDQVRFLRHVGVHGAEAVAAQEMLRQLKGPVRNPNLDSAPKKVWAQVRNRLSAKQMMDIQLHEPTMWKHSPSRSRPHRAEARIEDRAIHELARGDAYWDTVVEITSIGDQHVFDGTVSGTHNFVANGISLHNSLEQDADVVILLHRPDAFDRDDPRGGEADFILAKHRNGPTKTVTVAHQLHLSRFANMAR

[7] = tested on: H4; test: Luminescence Cell-Based Dose Response HTS to Identify Activators of 5'UTR Stem-Loop Driven Prion Protein mRNA Translation in H4 Neuroglioblastoma Cells. [Related pubchem assays: 1829 (Project Summary), 1814 (Primary HTS)]; type: functional; details: Homo sapiens
[8] = Luminescence Cell-Based Dose Response HTS to Identify Activators of Luciferase Translation or Activity in H4 […] Cells. [Related pubchem assays: 1829 (Project Summary), 1814 (Primary HTS)]; type: functional
[9] = microbe, parasite or virus in culture; type: functional; details: Mycobacterium tuberculosis
[10] = viability of uninfected HEp-2 cells – cell-based, HTS, cytotoxicity control for RSV inhibitor project, dose response (AID 2410); type: functional; details: human respiratory syncytial virus
[11] = biological target: T5, Corticotropin-releasing factor receptor 2/Corticotropin-releasing factor-binding protein (Homo sapiens, UniProt P24387+Q13324); test: activators of CRF receptor 2 with binding protein – uHTS hits, confirmation (AID 602473); type: functional; details: read-out: EC50_Mean
T5 sequence (Q13324 whole entry): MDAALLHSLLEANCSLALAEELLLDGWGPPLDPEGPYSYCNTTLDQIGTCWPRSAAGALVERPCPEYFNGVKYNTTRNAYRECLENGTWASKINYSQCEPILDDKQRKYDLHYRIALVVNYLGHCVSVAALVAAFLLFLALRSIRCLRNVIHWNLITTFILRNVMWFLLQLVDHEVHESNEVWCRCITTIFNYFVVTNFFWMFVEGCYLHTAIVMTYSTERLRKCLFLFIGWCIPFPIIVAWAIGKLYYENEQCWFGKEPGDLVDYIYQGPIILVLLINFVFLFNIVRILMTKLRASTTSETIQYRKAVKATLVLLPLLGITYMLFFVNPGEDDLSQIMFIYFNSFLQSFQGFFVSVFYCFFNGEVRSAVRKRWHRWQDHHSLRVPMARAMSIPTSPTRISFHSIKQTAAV
T5 sequence (P24387 whole entry): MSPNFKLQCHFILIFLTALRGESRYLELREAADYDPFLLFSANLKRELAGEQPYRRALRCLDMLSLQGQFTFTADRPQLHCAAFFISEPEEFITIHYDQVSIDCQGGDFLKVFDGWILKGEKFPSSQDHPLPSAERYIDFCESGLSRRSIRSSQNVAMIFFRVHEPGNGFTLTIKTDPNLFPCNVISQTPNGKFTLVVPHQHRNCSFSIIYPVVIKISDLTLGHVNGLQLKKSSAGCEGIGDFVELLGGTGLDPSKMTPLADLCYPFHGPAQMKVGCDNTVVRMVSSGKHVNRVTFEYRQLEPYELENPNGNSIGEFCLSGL

[12] = viability of PTEN-deleted HCT116 cells – cell-based, HCT116 PTEN knockout, dose response (AID 1047); type: functional;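 also: HCT116 colon tumor cells with PTEN knocked out; cells exposed to compound for 60 hours before readout; potency for loss of cell viability measured by luminescence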
[13] = luciferase reporter signal suppression in cells – H4 neuroglioma cells, luminescence, dose response (AID 1990); type: functional, cell-based
[14] = loss of viability in HepG2 cells – cell-based, CellTiter-Glo, cherry-picked, cytotoxicity control for Shn3 inhibitor project, dose response (AID 624134); type: functional
[15] = non-specific 3'UTR reporter inhibition in Clone20-Shn3RL – cell-based, Renilla luciferase, cherry-picked, counter-screen for Shn3 inhibitor project, dose response (AID 624133); type: functional
[16] = reduction of Shn3 3'UTR-driven luciferase in osteoblasts – cell-based, Clone20 osteoblasts, firefly luciferase, cherry-picked, dose response (AID 624132); type: functional;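 also: firefly luciferase luminescence from reporter carrying the Shn3 3'UTR in osteoblasts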
[17] = alpha-synuclein stem-loop luciferase translation blockers – H4 neuroglioma cells, luminescence, confirmation (AID 1988); type: functional, cell-based
[18] = Luminescence Cell-Based Dose Response HTS to Identify Inhibitors of 5'UTR Stem-Loop Driven Prion Protein mRNA Translation in H4 Neuroglioblastoma Cells. [Related pubchem assays: 1827 (Project Summary), 1813 (Primary HTS)]; type: functional
[19] = tested on: INS1; test: INS-1E survival protection against cytokine death – cell-based, luminescence, retest, dose response (AID 449756); type: functional; details: Rattus norvegicus;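 also: cell death triggered by IL-1 beta plus TNF-alpha plus IFN-gamma mixture; protective hits raise ATP signal compared with cytokine alone wells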
[20] = Luminescence Cell-Based Dose Retest to Confirm Inhibitors of Cancer Stem Cells. [Related pubchem assays (depositor defined):AID2717, AID2721]; type: functional; details: Homo sapiens
[21] = tested on: SN12K1; test: cells; type: functional; details: Homo sapiens
[22] = tested on: P388; test: cells; type: functional; details: Mus musculus;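 also: compound exposure lasted 48 hours before growth was measured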

Cc1cc[n+](C2=C([N-]S(=O)(=O)c3cccs3)C(=O)c3ccccc3C2=O)cc1C
EC50 [1]: > 300 µM (not active)
EC50 [2]: > 300 µM (not active)
EC50 [3]: > 30 µM (not active)
EC50 [4]: > 60 µM (not active)
EC50 [5]: 3.8 µM (active)
AC50 [6]: 3.69 µM (active)

O=C(Nc1ccccc1)c1cc2n(n1)C(C(F)(F)F)CC(C1CC1)N2 (stereo unspecified)
EC50 [7]: > 120 µM (not active)
EC50 [8]: 5.46 µM (active)

CCOc1ccc(S(=O)(=O)N2CCN(C(=O)c3cc4c(s3)CCCC4)CC2)cc1
CC50 [9]: > 40 µM (active)
CC50 [10]: 28.8 µM (active)

COc1ccc(CN2C[C@H](Cc3ccccc3)[C@@H](CC(=O)Nc3ccccc3)C2=O)cc1
CC50 [10]: 22 µM (active)

CC(=O)CSc1ncnc2c1cnn2-c1ccccc1
CC50 [10]: 42.5 µM (active)

CC(C)(C)N1CC2([N+](=O)[O-])CN(C(C)(C)C)CC([N+](=O)[O-])(C1)C2
EC50 [11]: 4.6 µM (active)

CCOC(=O)N1CCN(c2nc(N(c3ccccc3)c3ccccc3)nc(-n3ccnc3)n2)CC1
CC50 [9]: > 40 µM (active)

Cc1nn(Cc2ccccc2Cl)c2sc(C(=O)NCCCn3ccnc3)cc12
CC50 [9]: > 40 µM (active)

S=C(NCCc1ccc(Cl)cc1)Nc1ccc(Cl)cc1Cl
EC50 [12]: 30.9 µM (active)

NC(=O)c1cc(-c2csc(-c3cccnc3)n2)ccc1O
CC50 [10]: 22.7 µM (active)

Cc1cccnc1N=C(S)NCCc1ccccc1
EC50 [7]: 12.9 µM (inconclusive)
EC50 [8]: 21.7 µM (active)

COc1cc2nc(N3CCN(c4cc(C)ccc4C)CC3)nc(N)c2cc1OC
EC50 [13]: > 120 µM (not active)
AC50 [14]: 10.2 µM (active)
AC50 [15]: 12.7 µM (active)
CC50 [9]: 3.41 µM (active)
AC50 [16]: 5.44 µM (active)
EC50 [17]: > 120 µM (not active)
EC50 [3]: 16.7 µM (active)
EC50 [18]: > 120 µM (not active)
EC50 [4]: 3.35 µM (active)
AC50 [19]: 7.37 µM (active)

CCOC(=O)c1cnc(SCc2cccc(C)c2)nc1N
CC50 [10]: 43.8 µM (active)

O=C(Nc1ccc(N2CCOCC2)cc1)c1cc2c(s1)CCCCC2
CC50 [10]: 23.8 µM (active)

CC(=O)Nc1cccc(-c2cc(-c3c(Cl)cccc3Cl)no2)c1
CC50 [10]: 18.3 µM (active)

CCCN1CCc2c(sc(NC(=O)c3ccc(S(=O)(=O)N4CCCC4)cc3)c2C(N)=O)C1
EC50 [11]: 3.22 µM (active)

C/C(NC(=O)c1cccc(F)c1)=C1/C(=O)C[C@@H]2[C@H]1C2(C)C
EC50 [7]: 17.8 µM (active)
AC50 [20]: 1.24 µM (active)
EC50 [8]: 29.7 µM (active)

Cc1ccc(NC(=O)CN(C)CC(=O)Nc2sc3c(c2C(N)=O)CCC3)cc1
CC50 [10]: 28.1 µM (active)

Nc1ncc(CN2CCCC2)c(-c2ccccc2O)n1
GI50 [21]: > 100 µM (inactive)
GI50 [22]: > 100 µM (inactive)

Cc1nn(CCc2nn[nH]n2)c2nc(-c3ccc(Br)cc3)cc(C(F)(F)F)c12
CC50 [9]: > 40 µM (active)

CCCn1c(N2CCN(Cc3ccc(Cl)cc3)CC2)nc2ccccc21
CC50 [9]: > 40 µM (active)
